The target in one experiment is T1, H3 receptor (Cavia porcellus, UniProt Q9JI35).
T1 construct: The source of the H3 receptors in this experiment was guinea pig brain; from tissue; host or cells: guinea pig brain membranes
The experiment can be described thus: H3 Receptor Binding Assay (displacement of [3H]R-α-methylhistamine or [3H]-N-methylhistamine). The settings on record: guinea pig brain membranes; 3 nM [3H]R-α-methylhistamine or [3H]-N-methylhistamine; 30°, 30 min; duplicate, standard error less than 10%. The method, then: The compounds of this invention are either agonists or antagonists of the histamine H3 receptor. […] The animals used weighed 400-600 g. The tissue was homogenized using a Polytron in a solution of 50 mM Tris, pH 7.5. The final concentration of tissue in the homogenization buffer was 10% w/v. The homogenates were centrifuged at 1000×g for 10 min. in order to remove clumps of tissue and debris. […] The membranes were frozen and stored at -70° C. until needed. All compounds to be tested were dissolved in DMSO and then diluted into the binding buffer (50 mM Tris, pH 7.5) such that the final concentration was 2 μg/ml with 0.1% DMSO. Membranes were then added (400 μg of protein) to the reaction tubes. […] Bound ligand was separated from unbound ligand by filtration, and the amount of radioactive ligand bound to the membranes was quantitated by liquid scintillation spectrometry.

The test system of experiment [1] is H3 receptors in rat brain. The conditions noted are these: cited from Arrang et al.; cited from earlier work.

Molecules are shown by their SMILES.

T1 sequence (Q9JI35 whole entry): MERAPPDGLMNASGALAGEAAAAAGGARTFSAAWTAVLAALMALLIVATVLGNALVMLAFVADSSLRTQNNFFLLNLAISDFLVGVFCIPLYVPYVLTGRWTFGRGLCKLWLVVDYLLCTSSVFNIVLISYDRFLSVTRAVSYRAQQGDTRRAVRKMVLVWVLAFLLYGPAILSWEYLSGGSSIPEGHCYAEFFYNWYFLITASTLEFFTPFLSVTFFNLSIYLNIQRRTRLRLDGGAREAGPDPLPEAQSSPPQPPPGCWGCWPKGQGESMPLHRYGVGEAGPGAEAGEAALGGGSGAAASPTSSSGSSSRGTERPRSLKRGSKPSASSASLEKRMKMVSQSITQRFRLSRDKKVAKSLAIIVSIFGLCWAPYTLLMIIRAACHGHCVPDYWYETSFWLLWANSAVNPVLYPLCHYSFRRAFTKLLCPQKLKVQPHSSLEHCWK

In general, Ki refers to the equilibrium dissociation constant of an inhibitor or competing ligand from its target. Low values mean tighter binding, high ones weaker binding. Compound `O=C(CCN1CCC(CCc2cnc[nH]2)C1)Nc1ccc(Cl)cc1` (centres unmarked) [Compound 45] yielded a Ki on H3 receptor of 0.0009 µM. In the case of `O=S(=O)(c1ccc(Cl)cc1)N1CCC(Cc2cnc[nH]2)CC1` [Compound 78], the inhibition constant (Ki) at H3 receptor came to 0.15 µM.

Compound `c1ccc(OCCCN2CCC(Cc3cnc[nH]3)CC2)cc1` [Compound 79] gave an inhibitory constant (Ki) on H3 receptor of 0.004 µM. Against the preceding compound, the Ki is about 38-fold lower. Same read-out and setting: then `O=C(CCN1CCC(Cc2cnc[nH]2)CC1)Nc1cccc(Cl)c1` [Compound 81], with 0.0002 µM. The compound `O=C(CCN1CCC(Cc2c[nH]cn2)CC1)NCCc1ccc(Cl)cc1` [Compound 82] had a Ki on H3 receptor of 0.0007 µM. This Ki lies about 3.5-fold higher than the previous one.

`O=C(CCN1CCC(Cc2cnc[nH]2)CC1)Nc1cc(Cl)cc(Cl)c1` [Compound 83]: the inhibition constant (Ki) at H3 receptor stood at 0.0007 µM.

With `O=C(CCN1CCC(Cc2cnc[nH]2)CC1)Nc1ccc(Cl)cc1` [Compound 84], the affinity on H3 receptor corresponds to a Ki of 0.0004 µM. The same measure, in the same setting: then `O=C(Nc1cc(Cl)cc(Cl)c1)N1CCC(Cc2cnc[nH]2)CC1` [Compound 85], with 0.22 µM; and `O=C(CCOc1ccccc1)N1CCC(Cc2cnc[nH]2)CC1` [Compound 86], with 0.005 µM. On H3 receptor, `O=C(CCOc1ccc(Cl)cc1)N1CCC(Cc2cnc[nH]2)CC1` [Compound 87] displayed a Ki of 0.009 µM. Against the preceding compound, the Ki is about 1.8-fold higher. `Clc1ccc(OCCCN2CCC(Cc3cnc[nH]3)CC2)cc1` [Compound 88] registered a Ki at H3 receptor of 0.009 µM. Still for that read-out and setting: as for `O=C(CCN1CCC(Cc2cnc[nH]2)CC1)Nc1ccc(I)cc1` [Compound 89], the figure is 0.005 µM; as for `O=C(CN1CCC(Cc2cnc[nH]2)CC1)Nc1ccc(Cl)cc1` [Compound 90], 0.09 µM. For `O=C(Nc1cccc(Cl)c1)N1CCC(Cc2cnc[nH]2)CC1` [Compound 91], the affinity at H3 receptor, expressed as Ki, was 0.02 µM. The same measure, in the same setting: then `O=C(Nc1ccc(Cl)cc1)N1CCC(Cc2cnc[nH]2)CC1` [Compound 92], with 0.16 µM; and `O=C(CCc1ccc(Cl)cc1)N1CCC(Cc2cnc[nH]2)CC1` [Compound 93], with 0.04 µM.

The compound `O=C(CCN1CCC(Cc2c[nH]cn2)CC1)Nc1cccc(F)c1` [Compound 94] came in with a Ki at H3 receptor of 0.0001 µM. Still for that read-out and setting: then `O=C(CC(=O)N1CCC(Cc2cnc[nH]2)CC1)Nc1cccc(Cl)c1` [Compound 95], with 0.05 µM; and `O=C(CCCc1ccccc1)N1CCC(Cc2cnc[nH]2)CC1` [Compound 96], with 0.008 µM; and `O=S(=O)(c1ccc(OC(F)(F)F)cc1)N1CCC(CCc2cnc[nH]2)C1` (centres unmarked) [Compound 97], with 0.058 µM. With `FC(F)(F)c1ccc(NCCCN2CCC(CCc3cnc[nH]3)CC2)cc1` [Compound 114], on H3 receptor, affinity was put at a Ki of 0.06 µM. On the same count and under the same terms, then `O=C(Cc1ccc(Cl)c(Cl)c1)N1CCC(CCc2cnc[nH]2)CC1` [Compound 115], with 0.057 µM; and `O=C(CCN1CCC(CCc2cnc[nH]2)CC1)Nc1ccc(Cl)cc1` [Compound 116], with 0.011 µM. At H3 receptor, `O=C(CCN1CCC(CCc2cnc[nH]2)CC1)Nc1ccc(C(F)(F)F)cc1` [Compound 117] yielded a Ki of 0.05 µM. Still for that read-out and setting: as for `O=C(Nc1cccc(Cl)c1)N1CCC(CCc2cnc[nH]2)CC1` [Compound 118], the figure is 0.21 µM. On to `NCCc1c[nH]cn1` [histamine], for which the “maximal inhibition of release” value in experiment [1] is listed as “approximately 60%”.

(Values after US6100279A, “Imidazoylalkyl substituted with a five, six or seven membered heterocyclic ring containing one nitrogen atom” (Schering Corporation, priority 1998, dated 2000).)
